Bridge positions count the residues as written; N and C are the ends. Ends that are not written are not given here.
Tests used:
MUC2 [1] = target: T1, MUC2 (Homo sapiens, UniProt Q02817); assay: Phage display (CX7C library) against MUC2, Sanger sequencing; assay type: binding; settings: for % Prevalence: MUC2 phage screening, CX7C library, third round of panning, 16 sequenced candidates
Method: For each mucin of interest, 5 μg of mucin protein was diluted in 150 μL of Tris-buffered saline (TBS) and added to 2 wells of a microtiter plate. The plate was left overnight in a humidified, sealed container with agitation at 50 rpm. After the overnight mucin coating, the solution was poured out, and 300 μL of blocking buffer was added to the wells for 1 h. After the 1 h waiting period, the blocking buffer was poured out, and the wells were washed three times with 300 μL of Tris-buffered saline with TBST (TBS + 0.1% (v/v) Tween-20) to remove nonspecific binding on the mucin layer coating. Next, 5 μL of the C7C library diluted with 95 μL of TBST was added to each blocked well and placed on shaker for 45 min, before pouring out the nonbinding phage and washing the plate ten times with TBST. A 0.2 M glycine-HCl elution buffer (pH 2.2, 100 μL) was added to each well and placed on a shaker for 20 min to release the mucin-layer binding peptides on the plate as unamplified eluate, with the pH neutralized by 30 μL of neutralization buffer (1 M Tris-HCl, pH 9).
E. coli liquid cultures were prepared by adding E. coli cells to 20 mL of LB media and placing them in shaking conditions at 37 °C and 250 rpm for 2 h and 45 min. The unamplified eluate (1 μL of which was saved for titering) was added to the E. coli cultures under the same conditions for 4 h and 45 min for amplification. After amplification, the cultures were centrifuged for 10 min at 12,000 g RCF at 4 °C, and the supernatant was collected and spun again under the same conditions for 5 min. The top 16 mL of supernatant was collected and mixed with 4 mL of PEG/NaCl (20% (w/v) PEG-8000/2.5 M NaCl in water) to promote precipitation of the mucin-binding peptide-containing phage and left overnight.
Titering was performed to measure the amount of phages present in the solution. From the obtained unamplified eluate, 1 μL of unamplified eluate was added to 999 μL of LB solution to obtain a 10³ dilution. […]

MUC2 [2] = target: T1, MUC2; assay: Phage ELISA on MUC2; assay type: binding; settings: phage clones displaying the peptide, 10^7 PFU/μL, MUC2-coated plate, anti-M13/HRP, TMB, 450 nm, blank subtracted, three wells; vs random library and insertless phage
From the text: We next sought to validate the binding efficiency of these identified phage clones. We tested phage clones displaying peptides M2.1, M2.2, M2.3, and M2.4 for binding to MUC2, and phage clones displaying peptides M5.1, M5.2, M5.3, and M5.4 for binding to MUC5AC. We utilized a bacteriophage enzyme-linked immunosorbent assay to test the binding of the peptide hits to the specific target mucins, MUC2 and MUC5AC (Figure 2d). The spectrophotometer reported absorbance values at 450 nm. The intensity of the absorbance signal is proportional to the amount of peptide-mucin binding present in each sample. The negative controls (library samples and insertless samples) served as references for nonspecific binding.
First, mucin was coated onto the surface of a plastic plate overnight using the same process as that performed for the original phage display. The next morning, three wells of each phage clone were prepared, with each phage solution having a titer of 10^7 PFU/μL to ensure a fair comparison between the clones. […]
However, instead of eluting the bound phage, 100 μL of 1:2000 anti-M13/HRP mouse monoclonal antibody was added to each well, and the antibody was allowed to incubate with the wells for 30 min. […] The resulting solutions were analyzed by absorbance spectroscopy at a wavelength of 450 nm to determine the relative amount of phage present in each well.

Sequence	% Prevalence (MUC2 [1])	repeated peptide hits (number of phage candidates) (MUC2 [1]; phage display against MUC2, Sanger sequencing)	phage ELISA absorbance vs negative controls (MUC2 [2])
CAKHRIMLC (disulfide 1-9 (inferred)) [Peptide M2.1, CX7C cyclic peptide hit for MUC2; AF647 conjugated at N-terminus in ex vivo tests]	25%	4 of 16	significantly higher absorbances than the two negative controls
CTDKASSSC (disulfide 1-9 (inferred)) [Peptide M2.2, CX7C cyclic peptide hit for MUC2]	6.25%	–	significantly higher absorbances than the two negative controls

— PMC12020424, “Identification and Validation of Cyclic Peptides with Mucin-Selective, Location-Specific Binding in the Gastrointestinal Tract” (ACS Nano, 2025)
